Laboratory results reported in BindingDB's records for doi:10.1021/cb400407c (Duke University Medical Center, 2013).
Several values for one entry are separate records, joined by “and”; a condition that tells them apart may be missing. Equal values may be shown once.

Assays:
Assay in all cases: Kinome Profiling
[1] = target: Serine/threonine-protein kinase pim-1 (Homo sapiens, UniProt P11309)
Method: (§1) HS38 was evaluated using a P-33 ATP filter-binding assay by the International Centre for Kinase Profiling (University of Dundee) against 124 purified protein kinases using previously described methods.

[2] = target: Death-associated protein kinase 1 (Homo sapiens, UniProt P53355)
Method: as §1

[3] = target: Serine/threonine-protein kinase pim-3 (Homo sapiens, UniProt Q86V86)
Method: as §1

[4] = target: Serine/threonine-protein kinase pim-2 (Homo sapiens, UniProt Q9P1W9)
Method: as §1

[5] = target: Rho-associated protein kinase 2 (Homo sapiens, UniProt O75116)
Method: as §1

Death-associated protein kinase 1, sequence (P53355 whole entry): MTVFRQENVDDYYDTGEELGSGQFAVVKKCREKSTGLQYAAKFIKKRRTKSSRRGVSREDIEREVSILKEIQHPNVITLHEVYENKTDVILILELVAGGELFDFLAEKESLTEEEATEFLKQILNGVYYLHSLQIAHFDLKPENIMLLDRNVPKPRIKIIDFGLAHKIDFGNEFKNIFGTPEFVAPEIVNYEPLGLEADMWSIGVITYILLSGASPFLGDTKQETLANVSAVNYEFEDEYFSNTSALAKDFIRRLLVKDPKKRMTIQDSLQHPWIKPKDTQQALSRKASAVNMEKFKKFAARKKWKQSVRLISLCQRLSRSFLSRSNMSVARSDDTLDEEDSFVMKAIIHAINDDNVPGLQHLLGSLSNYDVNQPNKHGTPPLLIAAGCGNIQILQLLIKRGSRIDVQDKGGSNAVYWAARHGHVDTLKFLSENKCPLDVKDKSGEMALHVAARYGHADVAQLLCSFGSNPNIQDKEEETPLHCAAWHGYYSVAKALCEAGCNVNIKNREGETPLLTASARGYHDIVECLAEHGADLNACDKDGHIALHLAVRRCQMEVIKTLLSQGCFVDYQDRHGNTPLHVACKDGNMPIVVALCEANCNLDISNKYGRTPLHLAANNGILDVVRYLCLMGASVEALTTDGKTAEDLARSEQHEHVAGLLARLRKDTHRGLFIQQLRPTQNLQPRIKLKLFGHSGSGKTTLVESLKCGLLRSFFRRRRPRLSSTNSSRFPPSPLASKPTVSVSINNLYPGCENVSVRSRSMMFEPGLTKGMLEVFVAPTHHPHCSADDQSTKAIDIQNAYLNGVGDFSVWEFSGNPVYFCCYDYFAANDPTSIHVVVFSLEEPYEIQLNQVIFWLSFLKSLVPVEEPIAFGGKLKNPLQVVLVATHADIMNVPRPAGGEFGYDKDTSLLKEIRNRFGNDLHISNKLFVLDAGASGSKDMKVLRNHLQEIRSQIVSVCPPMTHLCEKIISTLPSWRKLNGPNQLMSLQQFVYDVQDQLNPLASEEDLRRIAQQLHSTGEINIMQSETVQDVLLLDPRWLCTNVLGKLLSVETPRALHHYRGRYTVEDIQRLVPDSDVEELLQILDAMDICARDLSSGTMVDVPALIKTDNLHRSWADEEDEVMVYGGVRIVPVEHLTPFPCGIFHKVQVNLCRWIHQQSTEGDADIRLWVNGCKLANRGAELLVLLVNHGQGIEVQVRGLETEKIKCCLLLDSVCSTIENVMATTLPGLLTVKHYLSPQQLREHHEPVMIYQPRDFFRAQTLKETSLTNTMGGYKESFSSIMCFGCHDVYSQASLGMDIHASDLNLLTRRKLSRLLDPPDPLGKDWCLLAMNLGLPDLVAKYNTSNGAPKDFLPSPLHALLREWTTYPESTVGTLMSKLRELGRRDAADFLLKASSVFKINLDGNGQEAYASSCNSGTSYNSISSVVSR
Serine/threonine-protein kinase pim-2, sequence (Q9P1W9 whole entry): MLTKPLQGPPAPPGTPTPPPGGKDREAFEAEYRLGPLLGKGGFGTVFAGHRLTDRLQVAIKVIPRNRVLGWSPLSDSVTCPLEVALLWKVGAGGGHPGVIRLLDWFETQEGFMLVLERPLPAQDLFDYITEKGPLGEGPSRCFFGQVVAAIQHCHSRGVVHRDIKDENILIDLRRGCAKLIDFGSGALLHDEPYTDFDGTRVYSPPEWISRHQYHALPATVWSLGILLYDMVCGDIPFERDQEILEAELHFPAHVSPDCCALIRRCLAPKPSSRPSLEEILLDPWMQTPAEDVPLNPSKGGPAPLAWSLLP
Serine/threonine-protein kinase pim-1, sequence (P11309 whole entry): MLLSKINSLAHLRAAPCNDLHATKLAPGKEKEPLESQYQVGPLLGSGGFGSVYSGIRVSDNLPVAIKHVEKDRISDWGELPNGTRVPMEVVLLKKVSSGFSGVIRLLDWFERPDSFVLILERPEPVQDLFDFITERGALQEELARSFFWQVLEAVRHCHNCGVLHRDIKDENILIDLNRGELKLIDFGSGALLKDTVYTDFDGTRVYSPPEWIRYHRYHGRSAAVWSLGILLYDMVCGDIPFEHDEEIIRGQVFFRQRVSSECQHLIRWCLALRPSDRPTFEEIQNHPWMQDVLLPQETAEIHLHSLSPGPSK
Rho-associated protein kinase 2, sequence (O75116 whole entry): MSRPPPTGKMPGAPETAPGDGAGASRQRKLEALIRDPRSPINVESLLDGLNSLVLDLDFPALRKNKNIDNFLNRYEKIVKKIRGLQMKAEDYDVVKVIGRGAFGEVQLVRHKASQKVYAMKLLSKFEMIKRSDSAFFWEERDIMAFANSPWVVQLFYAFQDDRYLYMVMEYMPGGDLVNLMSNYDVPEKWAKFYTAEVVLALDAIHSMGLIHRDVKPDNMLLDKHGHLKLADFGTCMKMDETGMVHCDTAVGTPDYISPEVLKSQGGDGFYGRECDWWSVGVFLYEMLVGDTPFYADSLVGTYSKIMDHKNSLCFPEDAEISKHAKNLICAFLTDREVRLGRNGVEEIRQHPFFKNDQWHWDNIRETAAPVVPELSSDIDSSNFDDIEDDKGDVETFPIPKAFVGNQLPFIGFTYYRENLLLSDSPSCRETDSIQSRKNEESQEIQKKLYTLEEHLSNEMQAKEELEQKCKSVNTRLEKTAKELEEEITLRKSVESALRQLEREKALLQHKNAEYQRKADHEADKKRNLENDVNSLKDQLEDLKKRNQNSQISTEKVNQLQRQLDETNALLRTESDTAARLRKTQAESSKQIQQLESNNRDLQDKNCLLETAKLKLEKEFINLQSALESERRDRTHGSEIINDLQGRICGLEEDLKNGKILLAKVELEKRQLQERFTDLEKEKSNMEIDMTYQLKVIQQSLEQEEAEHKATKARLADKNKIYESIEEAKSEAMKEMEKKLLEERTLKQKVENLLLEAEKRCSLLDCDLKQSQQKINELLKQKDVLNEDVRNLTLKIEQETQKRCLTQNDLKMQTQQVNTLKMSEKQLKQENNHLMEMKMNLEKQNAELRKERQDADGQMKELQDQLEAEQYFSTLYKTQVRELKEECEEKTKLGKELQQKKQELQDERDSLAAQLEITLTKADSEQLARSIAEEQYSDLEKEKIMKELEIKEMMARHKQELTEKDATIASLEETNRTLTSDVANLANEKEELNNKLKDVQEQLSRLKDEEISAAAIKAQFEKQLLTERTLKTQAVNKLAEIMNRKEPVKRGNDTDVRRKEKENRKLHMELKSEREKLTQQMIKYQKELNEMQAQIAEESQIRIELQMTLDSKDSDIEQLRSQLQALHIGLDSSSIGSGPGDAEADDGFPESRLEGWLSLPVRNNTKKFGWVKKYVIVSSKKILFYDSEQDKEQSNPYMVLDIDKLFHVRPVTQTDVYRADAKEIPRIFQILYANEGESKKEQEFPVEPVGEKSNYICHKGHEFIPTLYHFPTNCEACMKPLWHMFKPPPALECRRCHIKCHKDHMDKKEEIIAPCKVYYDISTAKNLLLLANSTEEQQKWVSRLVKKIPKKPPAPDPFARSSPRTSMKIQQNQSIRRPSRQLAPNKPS

| Structure (SMILES) | Kd [1] | Kd [2] | Kd [3] | Kd [4] | IC50 [5] |
| --- | --- | --- | --- | --- | --- |
| O=c1[nH]c(SCCO)nc2c1cnn2-c1cccc(Cl)c1 [HS43] | 1800 nM | 1500 nM and 320 nM | 1600 nM | 3.2 µM | – |
| CC(Sc1nc2c(cnn2-c2cccc(Cl)c2)c(=O)[nH]1)C(N)=O (centres undefined) [HS38] | 1800 nM | 300 nM and 79 nM and 280 nM | 810 nM | 6.5 µM | > 200 µM |
